The results in this text go back to patent US20150344457A1, “METHODS OF INHIBITING PRMT5” (EPIZYME, INC., priority 2012, published 2015).

The structures appear in SMILES notation. Where only a bound is given, the exact number is not on record here.

For one test, the target named is T1, PRMT5/MEP50 (Homo sapiens, UniProt O14744).
T1 construct: Expressed full-length human Flag-PRMT5/6His-MeP50 protein complex was purified; made in house; host or cells: Spodoptera frugiperda (SF9) insect cells, baculovirus (pDEST8)
Nature of the test: PRMT5 Biochemical Assay (PRMT5/MEP50 enzyme assay on peptide substrate, 3H-SAM Flashplate). The following applies: Table D-2; read-out: Biochemical IC50.

The subject of a further test is Z-138 cells. The experiment in a line: Z-138 Proliferation Assay (Cell Titer Glo, 5 days). The note with it: Homo sapiens, Table D-2. Type of test: cell-based. The gist of the method: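 Exponentially growing Z-138 cells (10,000 cells/ml) in RPMI 1640 with 10% FBS are exposed to nine-point 3-fold dilutions (final top concentration 20 μM, 0.2% DMSO) for 5 days at 37° C. Viability is measured as ATP by CellTiter-Glo luminescence. The 50% inhibitory concentration comes from a 4-parameter fit.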
For orientation: In ATP-based viability assays light output follows the ATP content of the culture.

T1 sequence (O14744 with tags, fused parts or gaps): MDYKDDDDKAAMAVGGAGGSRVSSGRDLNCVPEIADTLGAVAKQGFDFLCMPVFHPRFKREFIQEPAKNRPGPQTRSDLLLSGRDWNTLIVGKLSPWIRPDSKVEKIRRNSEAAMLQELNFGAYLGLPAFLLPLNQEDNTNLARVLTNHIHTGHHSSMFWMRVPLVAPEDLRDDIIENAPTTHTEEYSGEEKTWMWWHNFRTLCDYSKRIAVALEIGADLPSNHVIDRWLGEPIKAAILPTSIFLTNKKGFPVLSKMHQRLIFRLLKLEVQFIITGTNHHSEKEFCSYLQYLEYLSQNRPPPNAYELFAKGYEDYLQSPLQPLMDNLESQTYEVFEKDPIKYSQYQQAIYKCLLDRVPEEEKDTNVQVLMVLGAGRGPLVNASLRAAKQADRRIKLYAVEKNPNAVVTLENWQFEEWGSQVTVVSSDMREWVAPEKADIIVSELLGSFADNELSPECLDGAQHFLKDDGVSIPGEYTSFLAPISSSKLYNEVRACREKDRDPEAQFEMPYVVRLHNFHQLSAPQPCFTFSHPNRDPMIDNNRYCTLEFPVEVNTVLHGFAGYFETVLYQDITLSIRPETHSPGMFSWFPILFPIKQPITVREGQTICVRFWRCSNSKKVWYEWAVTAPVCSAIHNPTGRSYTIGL
T1 sequence (Q9BQA1 with tags, fused parts or gaps partner limits assumed): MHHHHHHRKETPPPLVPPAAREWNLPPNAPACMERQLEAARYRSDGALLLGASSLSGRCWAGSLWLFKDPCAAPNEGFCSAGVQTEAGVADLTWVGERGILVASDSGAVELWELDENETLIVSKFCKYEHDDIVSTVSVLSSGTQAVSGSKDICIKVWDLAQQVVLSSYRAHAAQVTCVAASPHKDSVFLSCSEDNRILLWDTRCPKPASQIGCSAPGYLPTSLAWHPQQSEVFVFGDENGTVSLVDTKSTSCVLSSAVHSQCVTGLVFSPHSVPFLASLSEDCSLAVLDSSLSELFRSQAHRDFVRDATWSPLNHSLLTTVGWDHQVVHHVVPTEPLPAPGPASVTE

The IC50 is the concentration needed to halve the response being measured. As a reminder, the EC50 is the midpoint of the concentration-response curve. Regarding `O=C(Cn1ccc2cnc(-c3ccnc(NCC(O)CN4CCc5ccccc5C4)c3)nc21)N1CCCCC1` (stereo not drawn) [Compound D246], the IC50 at PRMT5/MEP50 was less than 100 nM. This molecule registered an EC50 in the test on Z-138 cells of 101 to 1000 nM.

Turning to `CN1CCN(C(=O)Cn2ccc3cnc(-c4ccnc(NCC(O)CN5CCc6ccccc6C5)c4)nc32)CC1` (stereo not drawn) [Compound D247], the half-inhibitory concentration (IC50) at PRMT5/MEP50 was less than 100 nM. Further, the EC50 with Z-138 cells was 1000 to 10000 nM.

`Cn1ncc2cnc(-c3cccc(OCC(O)CN4CCc5ccccc5C4)c3)cc21` (stereo not drawn) [Compound D248]: at PRMT5/MEP50, the 50% inhibitory concentration (IC50) lay within 101 to 1000 nM. For the same molecule, the EC50 with Z-138 cells fell in the range of 10000 to 40000 nM.

Regarding `O=C(Cn1cnc2ccc(-c3cccc(OCC(O)CN4CCc5ccccc5C4)c3)cc21)N1CCCCC1` (stereo not drawn) [Compound D249], the half-maximal inhibitory concentration (IC50) at PRMT5/MEP50 was in the range of 101 to 1000 nM. Also, the half-maximal effective concentration (EC50) in the test with Z-138 cells was in the range of 10000 to 40000 nM.

As to `CN1CCC(n2cnc3ccc(-c4ccnc(NCC(O)CN5CCc6ccccc6C5)c4)cc32)C1` (stereo not drawn) [Compound D250], at PRMT5/MEP50, the IC50 was less than 100 nM. Also, the EC50 with Z-138 cells was 1000 to 10000 nM.

Regarding `OC(CNc1cc(-c2ccc3ncn(C4CCOCC4)c3c2)ccn1)CN1CCc2ccccc2C1` (stereo not drawn) [Compound D251], the concentration for half-maximal inhibition (IC50) at PRMT5/MEP50 was less than 100 nM. This molecule showed an EC50 in the test on Z-138 cells of 1000 to 10000 nM.

Take `CN1CCC(n2cnc3ccc(-c4ccnc(NCC(O)CN5CCc6ccccc6C5)c4)cc32)CC1` (stereo not drawn) [Compound D252]: the IC50 on PRMT5/MEP50 is less than 100 nM. The concentration giving a half-maximal response (EC50) in the test with Z-138 cells fell in the range of 1000 to 10000 nM.

Take `OC(COc1cccc(-c2ncc3ccn(C4CCNCC4)c3n2)c1)CN1CCc2ccccc2C1` (stereo not drawn) [Compound D253]: the half-inhibitory concentration (IC50) on PRMT5/MEP50 was less than 100 nM. Also, in the test on Z-138 cells, the EC50 lay in the range of 1000 to 10000 nM.

`OC(CNc1cc(-c2ncc3ccn(C4CNC4)c3n2)ccn1)CN1CCc2ccccc2C1` (stereo not drawn) [Compound D254]: the concentration for half-maximal inhibition (IC50) on PRMT5/MEP50 is less than 100 nM. This molecule also yielded a concentration for a half-maximal effect (EC50) with Z-138 cells of 1000 to 10000 nM.

Consider `OC(CNc1cc(-c2ncc3ccn(C4CCNCC4)c3n2)ccn1)CN1CCc2ccccc2C1` (stereo not drawn) [Compound D255], for which, on PRMT5/MEP50, the concentration for half-maximal inhibition (IC50) was less than 100 nM. For the same molecule, the EC50 in the test with Z-138 cells was in the range of 101 to 1000 nM.

As for `CC(=O)N1CCC(n2ccc3cnc(-c4ccnc(NCC(O)CN5CCc6ccccc6C5)c4)nc32)CC1` (stereo not drawn) [Compound D256], the IC50 on PRMT5/MEP50 is less than 100 nM. This molecule yielded an EC50 in the test with Z-138 cells of 101 to 1000 nM.

`O[C@@H](COc1cccc(-c2cccc3cccnc23)c1)CN1CCc2ccccc2C1` [Compound D257]: the 50% inhibitory concentration (IC50) on PRMT5/MEP50 was less than 100 nM. Moreover, in the test on Z-138 cells, the EC50 lay within 1000 to 10000 nM.

Turning to `Cn1cc2ccc(-c3cccc(NCC(O)CN4CCc5ccccc5C4)c3)nc2n1` (stereo not drawn) [Compound D261], the IC50 on PRMT5/MEP50 was less than 100 nM. Besides, the 50% effective concentration (EC50) in the test on Z-138 cells was 10000 to 40000 nM.

Consider `CNC(=O)Cn1cnc2ccc(-c3cccc(OCC(O)CN4CCc5ccccc5C4)c3)cc21` (stereo not drawn) [Compound D262], for which the IC50 on PRMT5/MEP50 was 101 to 1000 nM. In the test on Z-138 cells, the EC50 fell in the range of 1000 to 10000 nM.

As to `O=C(Cn1cnc2ccc(-c3cccc(OCC(O)CN4CCc5ccccc5C4)c3)cc21)N1CCCC1` (stereo not drawn) [Compound D263], the half-maximal inhibitory concentration (IC50) on PRMT5/MEP50 fell in the range of 101 to 1000 nM. Also, the EC50 in the test on Z-138 cells is 10000 to 40000 nM.

On to `O=C(Cn1cnc2ccc(-c3cccc(OCC(O)CN4CCc5ccccc5C4)c3)cc21)N1CCOCC1` (stereo not drawn) [Compound D264], for which the 50% inhibitory concentration (IC50) on PRMT5/MEP50 is 101 to 1000 nM. The molecule further returned a concentration for a half-maximal effect (EC50) with Z-138 cells of 1000 to 10000 nM.

Turning to `OC(CNc1cc(-c2ccc3ncn(C4COC4)c3c2)ccn1)CN1CCc2ccccc2C1` (stereo not drawn) [Compound D265], the 50% inhibitory concentration (IC50) at PRMT5/MEP50 was less than 100 nM. Besides, the EC50 in the test with Z-138 cells was in the range of 1000 to 10000 nM.

For `Cc1ncc2ccc(-c3cccc(OCC(O)CN4CCc5ccccc5C4)c3)cn12` (stereo not drawn) [Compound D266], at PRMT5/MEP50, the half-maximal inhibitory concentration (IC50) is less than 100 nM. Also, in the test with Z-138 cells, the half-maximal effective concentration (EC50) lay in the range of 1000 to 10000 nM.

With `OC(COc1cccc(-c2ccc3ncn(C4COC4)c3c2)c1)CN1CCc2ccccc2C1` (stereo not drawn) [Compound D269], the half-maximal inhibitory concentration (IC50) at PRMT5/MEP50 was less than 100 nM. In the test on Z-138 cells, this molecule returned a half-maximal effective concentration (EC50) of 10000 to 40000 nM.

As to `CN1CCN(C(=O)Cn2cnc3ccc(-c4cccc(OCC(O)CN5CCc6ccccc6C5)c4)cc32)CC1` (stereo not drawn) [Compound D270], the 50% inhibitory concentration (IC50) on PRMT5/MEP50 was 101 to 1000 nM. This molecule yielded an EC50 with Z-138 cells of 10000 to 40000 nM.

As to `Cn1cnc2ccc(-c3cc(NCC(O)CN4CCc5ccccc5C4)n[nH]3)cc21` (stereo not drawn) [Compound D271], the IC50 at PRMT5/MEP50 was 101 to 1000 nM. In the test with Z-138 cells, this molecule yielded an EC50 greater than 20000 nM.

As for `Cn1cnc2cc(-c3cc(NCC(O)CN4CCc5ccccc5C4)n[nH]3)ccc21` (stereo not drawn) [Compound D272], the 50% inhibitory concentration (IC50) at PRMT5/MEP50 was in the range of 101 to 1000 nM. Moreover, in the test with Z-138 cells, the concentration giving a half-maximal response (EC50) is 1000 to 10000 nM.

As for `CC(=O)N(CC(O)CN1CCc2ccccc2C1)c1cccc(-c2ccc3ncn(C)c3c2)c1` (stereo not drawn) [Compound D273], at PRMT5/MEP50, the 50% inhibitory concentration (IC50) is less than 100 nM. Further, the EC50 in the test with Z-138 cells fell in the range of 10000 to 40000 nM.

`Cn1cnc2ccc(-c3ccnc(NC[C@H](O)CN4CCc5ccccc5C4)c3)cc21` [Compound D275]: the 50% inhibitory concentration (IC50) on PRMT5/MEP50 is less than 100 nM. In the test with Z-138 cells, this molecule yielded a concentration for a half-maximal effect (EC50) of 1000 to 10000 nM.
